Measurements as given in patent US8859569B2, “Substituted annellated pyrimidines and use thereof” (Bayer Pharma Aktiengesellschaft, priority 2011, dated 2014).

Experiments:
[1] = molecular target: T1, recombinant guanylate cyclase reporter cell line (Rattus norvegicus, UniProt P19686+P20595); assay: Action on recombinant guanylate cyclase reporter cell line; type: cell-based
T1 construct: expressed in transfected cells
T1 sequence (P20595 1-619): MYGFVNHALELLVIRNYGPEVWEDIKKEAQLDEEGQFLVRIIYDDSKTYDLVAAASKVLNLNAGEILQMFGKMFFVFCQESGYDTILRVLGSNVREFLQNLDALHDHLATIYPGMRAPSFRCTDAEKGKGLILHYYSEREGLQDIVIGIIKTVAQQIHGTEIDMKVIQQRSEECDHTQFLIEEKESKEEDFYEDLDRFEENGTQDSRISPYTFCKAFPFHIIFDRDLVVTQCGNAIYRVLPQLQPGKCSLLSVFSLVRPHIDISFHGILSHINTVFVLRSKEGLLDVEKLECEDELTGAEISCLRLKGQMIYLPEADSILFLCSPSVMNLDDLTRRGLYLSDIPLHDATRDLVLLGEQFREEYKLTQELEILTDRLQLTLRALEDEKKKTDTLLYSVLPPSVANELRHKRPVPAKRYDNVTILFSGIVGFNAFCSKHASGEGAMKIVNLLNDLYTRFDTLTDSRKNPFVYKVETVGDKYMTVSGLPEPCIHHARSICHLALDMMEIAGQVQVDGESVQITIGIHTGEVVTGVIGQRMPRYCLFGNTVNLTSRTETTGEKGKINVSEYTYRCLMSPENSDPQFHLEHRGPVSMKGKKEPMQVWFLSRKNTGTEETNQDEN
T1 sequence (P19686 1-690): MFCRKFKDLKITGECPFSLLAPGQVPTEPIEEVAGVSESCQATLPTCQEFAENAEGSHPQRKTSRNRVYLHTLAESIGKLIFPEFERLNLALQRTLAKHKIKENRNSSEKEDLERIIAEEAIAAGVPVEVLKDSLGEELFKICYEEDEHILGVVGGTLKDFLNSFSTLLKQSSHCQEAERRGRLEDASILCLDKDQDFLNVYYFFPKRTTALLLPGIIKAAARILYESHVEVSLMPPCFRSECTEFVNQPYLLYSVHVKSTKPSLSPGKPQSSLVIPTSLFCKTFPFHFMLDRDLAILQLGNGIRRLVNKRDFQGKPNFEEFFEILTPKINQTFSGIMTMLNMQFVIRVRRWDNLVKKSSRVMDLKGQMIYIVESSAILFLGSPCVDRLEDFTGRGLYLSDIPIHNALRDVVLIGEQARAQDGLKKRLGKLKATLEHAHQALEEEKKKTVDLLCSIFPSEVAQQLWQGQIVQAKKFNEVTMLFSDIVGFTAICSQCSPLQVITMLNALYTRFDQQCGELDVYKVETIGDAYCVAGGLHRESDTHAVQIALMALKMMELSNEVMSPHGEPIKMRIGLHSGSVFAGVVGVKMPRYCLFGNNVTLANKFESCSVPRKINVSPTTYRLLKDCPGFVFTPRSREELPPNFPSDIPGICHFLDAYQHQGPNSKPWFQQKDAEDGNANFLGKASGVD
Description: B-2. Action on Recombinant Guanylate Cyclase Reporter Cell Line
The cellular action of the compounds according to the invention is determined on a recombinant guanylate cyclase reporter cell line, as described in F. Wunder et al., Anal. Biochem. 339, 104-112 (2005).

[2] = molecular target: T2, human phosphodiesterase 5 (PDE-5) (Homo sapiens, UniProt O76074); assay: Inhibition of human phosphodiesterase 5 (PDE-5), SPA assay; type: biochemical; conditions: PDE-5 preparation from human platelets, [8-3H]cGMP substrate
T2 construct: PDE-5 preparations are obtained from human platelets by lysis; from tissue; host or cells: human platelets
Description: B-6. Inhibition of Human Phosphodiesterase 5 (PDE-5)
PDE-5 preparations are obtained from human platelets by lysis (Microfluidizer®, 800 bar, 3 passages), followed by centrifugation (75000 g, 60 min, 4° C.) and ion-exchange chromatography of the supernatant on a Mono Q 10/10 column (linear sodium chloride gradient, elution with a 0.2-0.3M solution of sodium chloride in buffer (20 mM Hepes pH 7.2, 2 mM magnesium chloride). Fractions that have PDE-5 activity are combined (PDE-5 preparation) and stored at −80° C.
For determining their in-vitro action on human PDE-5, the test substances are dissolved in 100% DMSO and serial dilutions are prepared. Typically, dilution series (1:3) from 200 μM to 0.091 μM are prepared (resultant final concentrations in the test: 4 μM to 0.0018 μM). In each case 2 μL of the diluted solutions of the substance are put in the wells of microtitre plates (Isoplate-96/200W; Perkin-Elmer). Then 50 μL of a dilution of the PDE-5 preparation described above is added. The dilution of the PDE-5 preparation is selected so that during subsequent incubation less than 70% of the substrate is reacted (typical dilution: 1:100; dilution buffer: 50 mM Tris/hydrochloric acid pH 7.5, 8.3 mM magnesium chloride, 1.7 mM EDTA, 0.2% BSA). The substrate [8-^3H]cyclic guanosine-3′,5′-monophosphate (1 μCi/μL; Perkin-Elmer) is diluted 1:2000 with assay buffer (50 mM Tris/hydrochloric acid pH 7.5, 8.3 mM magnesium chloride, 1.7 mM EDTA) to a concentration of 0.0005 μCi/μL. The enzyme reaction is finally started by adding 50 μL (0.025 μCi) of the diluted substrate. The test preparations are incubated for 60 min at room temperature and the reaction is stopped by adding 25 μL of a suspension of 18 mg/mL of Yttrium Scintillation Proximity Beads in water (phosphodiesterase beads for SPA assays, RPNQ 0150, Perkin-Elmer). The microtitre plates are sealed with film and left to stand for 60 min at room temperature. Then the plates are measured for 30 s per well in a Microbeta scintillation counter (Perkin-Elmer). IC50 values are determined on the basis of the graphs plotted of the substance concentration versus the percentage PDE-5 inhibition.

Row | SMILES | MEC (minimal effective concentration) [1] [μm] | IC50 [2] [nM]
1 | CC1(C)C(=O)Nc2nc(-c3nn(Cc4ccccc4F)c4ncccc34)nc(N3C[C@@H]4C[C@H]3CO4)c21 [Example 46, 2-[1-(2-fluorobenzyl)-1H-pyrazolo[3,4-b]pyridin-3-yl]-5,5-dimethyl-4-[(1S,4S)-2-oxa-5-azabicyclo[2.2.1]hept-5-yl]-5,7-dihydro-6H-pyrrolo[2,3-d]pyrimidin-6-one] | 0.1 | 35
2 | COCCN(C)c1nc(-c2nn(Cc3ccccc3F)c3ncccc23)nc2c1C(C)(C)C(=O)N2 [Example 75, 2-[1-(2-fluorobenzyl)-1H-pyrazolo[3,4-b]pyridin-3-yl]-4-[(2-methoxyethyl)(methyl)amino]-5,5-dimethyl-5,7-dihydro-6H-pyrrolo[2,3-d]pyrimidin-6-one] | 0.03 | 210
3 | CC1(C)C(=O)Nc2nc(-c3nn(Cc4ccccc4F)c4ncccc34)nc(NC[C@@H]3CCOC3)c21 [Example 45, 2-[1-(2-fluorobenzyl)-1H-pyrazolo[3,4-b]pyridin-3-yl]-5,5-dimethyl-4-[(tetrahydrofuran-3-ylmethyl)amino]-5,7-dihydro-6H-pyrrolo[2,3-d]pyrimidin-6-one] | 0.1 | 78
4 | Cc1nccn1-c1nc(-c2nn(Cc3ccccc3F)c3ncccc23)nc2c1C(C)(C)C(=O)N2 [Example 62, 2-[1-(2-fluorobenzyl)-1H-pyrazolo[3,4-b]pyridin-3-yl]-5,5-dimethyl-4-(2-methyl-1H-imidazol-1-yl)-5,7-dihydro-6H-pyrrolo[2,3-d]pyrimidin-6-one] | 0.1 | 480
5 | CC1(C)CCN(c2nc(-c3nn(Cc4ccccc4F)c4ncccc34)nc3c2C(C)(C)C(=O)N3)CC1 [Example 68, 4-(4,4-dimethylpiperidin-1-yl)-2-[1-(2-fluorobenzyl)-1H-pyrazolo[3,4-b]pyridin-3-yl]-5,5-dimethyl-5,7-dihydro-6H-pyrrolo[2,3-d]pyrimidin-6-one] | 0.1 | 35
6 | CC1(C)C(=O)Nc2nc(-c3nn(Cc4ccccc4F)c4ncccc34)nc(Nc3cccnc3)c21 [Example 65, 2-[1-(2-fluorobenzyl)-1H-pyrazolo[3,4-b]pyridin-3-yl]-5,5-dimethyl-4-(pyridin-3-ylamino)-5,7-dihydro-6H-pyrrolo[2,3-d]pyrimidin-6-one] | 0.1 | 430
7 | CC1(C)C(=O)Nc2nc(-c3nn(Cc4ccccc4F)c4ncccc34)nc(N3CCOCC3)c21 [Example 72, 2-[1-(2-fluorobenzyl)-1H-pyrazolo[3,4-b]pyridin-3-yl]-5,5-dimethyl-4-(morpholin-4-yl)-5,7-dihydro-6H-pyrrolo[2,3-d]pyrimidin-6-one] | 0.1 | 110
8 | CC1(C)C(=O)Nc2nc(-c3nn(Cc4ccccc4F)c4ncccc34)nc(NC[C@H]3CNC(=O)C3)c21 [Example 66, 2-[1-(2-fluorobenzyl)-1H-pyrazolo[3,4-b]pyridin-3-yl]-5,5-dimethyl-4-{[(5-oxopyrrolidin-3-yl)methyl]amino}-5,7-dihydro-6H-pyrrolo[2,3-d]pyrimidin-6-one] | 0.1 | 16
9 | COCCCNc1nc(-c2nn(Cc3ccccc3F)c3ncccc23)nc2c1C(C)(C)C(=O)N2 [Example 74, 2-[1-(2-fluorobenzyl)-1H-pyrazolo[3,4-b]pyridin-3-yl]-4-[(3-methoxypropyl)amino]-5,5-dimethyl-5,7-dihydro-6H-pyrrolo[2,3-d]pyrimidin-6-one] | 0.01 | 110
10 | CC1(C)C(=O)Nc2nc(-c3nn(Cc4ccccc4F)c4ncccc34)nc(N3CCC(F)(F)C3)c21 [Example 76, 4-(3,3-difluoropyrrolidin-1-yl)-2-[1-(2-fluorobenzyl)-1H-pyrazolo[3,4-b]pyridin-3-yl]-5,5-dimethyl-5,7-dihydro-6H-pyrrolo[2,3-d]pyrimidin-6-one] | 0.03 | 130

More lines, now with the values ahead:

Row | MEC (minimal effective concentration) [1] [μm] | IC50 [2] [nM] | SMILES
11 | 0.3 | 4.2 | CC1(C)C(=O)Nc2nc(-c3nn(Cc4ccccc4F)c4ncccc34)nc(NCc3ccncc3)c21 [Example 85, 2-[1-(2-fluorobenzyl)-1H-pyrazolo[3,4-b]pyridin-3-yl]-5,5-dimethyl-4-[(pyridin-4-ylmethyl)amino]-5,7-dihydro-6H-pyrrolo[2,3-d]pyrimidin-6-one]
12 | 0.03 | 230 | CC(C)CCNc1nc(-c2nn(Cc3ccccc3F)c3ncccc23)nc2c1C(C)(C)C(=O)N2 [Example 63, 2-[1-(2-fluorobenzyl)-1H-pyrazolo[3,4-b]pyridin-3-yl]-5,5-dimethyl-4-[(3-methylbutyl)amino]-5,7-dihydro-6H-pyrrolo[2,3-d]pyrimidin-6-one]
13 | 0.1 | 120 | CC1(C)C(=O)Nc2nc(-c3nn(Cc4ccccc4F)c4ncccc34)nc(NCc3ccccc3F)c21 [Example 42, 4-[(2-fluorobenzyl)amino]-2-[1-(2-fluorobenzyl)-1H-pyrazolo[3,4-b]pyridin-3-yl]-5,5-dimethyl-5,7-dihydro-6H-pyrrolo[2,3-d]pyrimidin-6-one]
14 | 0.03 | 230 | CC1(C)C(=O)Nc2nc(-c3nn(Cc4ccccc4F)c4ncccc34)nc(NCc3ccccc3)c21 [Example 83, 4-(benzylamino)-2-[1-(2-fluorobenzyl)-1H-pyrazolo[3,4-b]pyridin-3-yl]-5,5-dimethyl-5,7-dihydro-6H-pyrrolo[2,3-d]pyrimidin-6-one]
15 | 0.1 | 40 | Cc1cc(Nc2nc(-c3nn(Cc4ccccc4F)c4ncccc34)nc3c2C(C)(C)C(=O)N3)nn1C [Example 50, 4-[(1,5-dimethyl-1H-pyrazol-3-yl)amino]-2-[1-(2-fluorobenzyl)-1H-pyrazolo[3,4-b]pyridin-3-yl]-5,5-dimethyl-5,7-dihydro-6H-pyrrolo[2,3-d]pyrimidin-6-one]
16 | 0.1 | 11 | Cn1nccc1CNc1nc(-c2nn(Cc3ccccc3F)c3ncccc23)nc2c1C(C)(C)C(=O)N2 [Example 40, 2-[1-(2-Fluorobenzyl)-1H-pyrazolo[3,4-b]pyridin-3-yl]-5,5-dimethyl-4-{[(1-methyl-1H-pyrazol-5-yl)methyl]amino}-5,7-dihydro-6H-pyrrolo[2,3-d]pyrimidin-6-one]
